Assays:
[1] = set-up: method as in Rudorfer and Potter, 1999; settings: ref Rudorfer and Potter, 1999; cited from earlier work
[2] = no reference given, cited from earlier work
[3] = Adverse effects of amitriptyline in healthy volunteers (visual analogue scales, pupillometry); assay type: in vivo, human
Experimental: After overnight fasting, a single dose of 25 mg […] dura GmbH, Darmstadt, Germany) was orally administered to each subject. […] For the study in healthy volunteers, the primary endpoints were the AUCs of plasma AT and NT concentrations. Secondary endpoints were the other pharmacokinetic parameters of AT and NT, as well as heart rate, blood pressure, pupil size effects, and possible adverse events (headache, fatigue, visual or hearing impairments, restlessness, nausea, dizziness, dry mouth, tremor, as well as sensations of hypothermia and heart palpitations determined using a visual analogue scale test). Pharmacokinetic parameters were calculated by non-compartmental analysis using Phoenix 64 WinNonlin version 6.3 (Certara Inc., Princeton, NJ, United States). AUCinf of AT was calculated from the time of dosing using the linear/log trapezoidal rule and extrapolated to infinity based on the last predicted concentration and using the terminal elimination rate constant (lambda z). AUC of NT was calculated from the time of dosing until the last measurement at 48 h using the linear/log trapezoidal rule, as a decline in NT concentrations was not observed in some subjects and extrapolation to infinity thus not possible.

OCT1 = assay: Plasma acylcarnitine concentrations as endogenous biomarkers for OCT1 activity in healthy volunteers; assay type: in vivo, human
Experimental: The peripheral venous blood samples of the healthy volunteers were treated with ethylenediaminetetraacetic acid (EDTA) for anticoagulation, centrifuged within 30 min after withdrawal (3,100 × g, 10 min, room temperature), and the plasma was stored at −20°C. For determining the plasma concentrations of AT, NT, IBC, 2-methylbutyrylcarnitine, and propionylcarnitine, plasma samples were mixed with twice the volume precipitation reagent of 10% (v/v) methanol and 90% (v/v) acetonitrile that included the corresponding deuterated internal standards AT-d6 (Biozol Diagnostica GmbH, Eching, Germany), NT-d3, IBC-d6, 2-methylbutyrylcarnitine-d9, and propionylcarnitine-d3 and d9 (all Santa Cruz Biotechnology, Heidelberg, Germany) and shaken for 15 min. After centrifugation (13,000 rpm, 15 min, room temperature), two-thirds of the supernatant were transferred to a new reaction tube and evaporated at 40°C under nitrogen flow. The residue was reconstituted under shaking in 0.1% methanoic acid and briefly centrifuged before quantification using a Nexera UHPLC system (Shimadzu, Kyoto, Japan) coupled to an API 4000 tandem mass spectrometer (AB Sciex, Darmstadt, Germany). Separation was done using a Brownlee SPP RP-Amide column (4.6 × 100 mm inner dimensions, 2.7 µm particle size; PerkinElmer, Rodgau, Germany) with a Phenomenex C18 pre-column (4 × 2 mm, Phenomenex, Aschaffenburg, Germany). For AT and NT, the mobile phase consisted of 0.1% (v/v) methanoic acid, 5.3% (v/v) methanol, and 31.7% (v/v) acetonitrile in water. For the carnitine derivatives, it consisted of 0.1% (v/v) methanoic acid, 0.43% (v/v) methanol, and 2.57% (v/v) acetonitrile in water. The lower limit of quantification was 0.5 ng/ml for AT and 0.1 ng/ml for NT. […]
In order to investigate the proposed suitability of IBC as a human in vivo biomarker for OCT1 activity ([Luo et al., 2020]), plasma concentrations of IBC as well as of 2-methylbutyrylcarnitine and propionylcarnitine were determined in a subgroup of 18 volunteers who participated in the study on AT pharmacokinetics. […]

[4] = set-up: method as in Hardman et al., 2001; settings: ref Hardman et al., 2001; cited from earlier work

## CN(C)CCC=C1c2ccccc2CCc2ccccc21 [Amitriptyline, amitriptyline]
[1]
  excreted unchanged in urine: less than 5%
[2]; at physiological pH
  positively charged fraction: approximately 99%
[2]; pH 7.4
  logD7.4: 3
[3]; healthy volunteers, single oral 25 mg AT, entire study
  serious adverse events: no serious adverse events occurred
[3]; healthy volunteers, single oral 25 mg AT, no placebo control
  tolerability: generally well-tolerated
[3]; visual analogue scales and pupillometry, 25 mg AT dose
  time- and concentration-related adverse effects (dry mouth, visual or hearing impairment, restlessness, headache, nausea, dizziness, sensation of cold) and anticholinergic effects by pupillometry: not observed
[3]; visual analogue scales, healthy volunteers, 25 mg AT, no placebo control
  time of peak fatigue symptoms after administration: 3 h
OCT1; 2 h after 25 mg AT administration
  plasma IBC concentration relative to baseline IBC concentration: 72%
OCT1; 4 h after 25 mg AT administration
  plasma IBC concentration relative to baseline IBC concentration: 67%
OCT1; after 25 mg AT
  decrease in IBC plasma concentration observed in vivo: 33%
[4]
  plasma protein binding: 95%
